In US20060153844A1, “Methods to trigger, maintain and manipulate immune responses by targeted administration of biological response modifiers into lymphoid organs” (priority 2004, published 2006):
“Also recorded” adds a separate entry of the source.

Experiments:
splenocyte = settings: mouse, in vivo, sc
Protocol: C57BL/6 mice were treated with different doses of CpG and euthanized 8 days later for analysis of the spleen. […] The means±SEM (n=3) are shown. […] The means±SEM (n=3) are shown.

DCs = test: activation of lymph node DCs, up-regulation of CD80 and CD86 (flow cytometry); assay type: in vivo, C57BL/6 mice
Protocol: To assess CpG-induced activation of professional APCs, C57BL/6 mice received titrated amounts of CpG ODN 1668pt either subcutaneously by injection into the inguinal region or by direct injection into the inguinal lymph node. After one day the inguinal lymph nodes were collected and DCs were isolated by Collagenase D digestion and positive isolation using anti-CD11c magnetic beads. Activation of DCs was assessed by measuring up-regulation of CD80 and CD86 (FIGS. 3A and B). Values represent the mean fluorescence intensity (MFI) measured by flow cytometry. As control, mice were immunized i.ln. with saline solution. Lymph node cells pooled from three mice per group were used for the analysis. At least 1.5×10^4 CD11c^+ cells were acquired per condition. […] Note that an intralymphatic control injection with saline induced slight upregulation of CD80 and CD86. This may be explained by the physical lymph node damage produced by the needle. Thus, although both sites of injection are very close to each other, direct intralymphatic administration reduced the dose of CpG that is necessary for DC maturation by 10-50 fold.

[1] = system: EL-4 target cells pulsed with the ovalbumin peptide epitope; test: direct ex vivo CTL activity, 51Cr-release assay after OVA plus CpG; assay type: in vivo, C57BL/6 mice; settings: seven days later
Protocol: The optimal intralymphatic dose of CpG for CTL induction was evaluated and compared to the optimal subcutaneous dose. C57BL/6 mice were injected with OVA alone or in combination with CpG ODN 1668pt. CD8 T cell responses were tested for direct ex vivo CTL activity seven days later using ^51Cr-release assays on EL-4 target cells pulsed with the ovalbumin peptide epitope (SEQ. ID. No. 2) at various effector to target cell ratios. Two dilution series of effector cells per mouse were performed. The means±SEM (n=3) are shown (see FIG. 4). […] The CTL activity was correlated with the frequency of CD8 lymphocytes staining positive for intracellular IFN-γ as measured by flow cytometry (data not shown).

PLA2-specific IgG = PLA2-specific IgG by ELISA after PLA2 plus titrated CpG; assay type: in vivo, CBA/J mice
Protocol: The doses of CpG required to enhance Th1-dependent IgG immune responses against an allergen, and whether intralymphatic administration could reduce the required dose of CpG were evaluated. PLA2, the major allergen from bee venom, was used as a model allergen. CBA/J mice were immunized biweekly with […] ODN-1668pt together with 0.1 μg of PLA2 either intralymphatically (A) or subcutaneously (B). Three weeks after the third injection, sera of mice were collected and PLA2-specific IgG was determined by ELISA (FIG. 9). Values represent means and standard deviations obtained from three mice per group. One representative of two similar experiments is shown.

[2] = system: CD4 or CD8 positive lymphocytes; test: intracellular IFN-γ in spleen CD4 and CD8 T cells by flow cytometry; assay type: in vivo, CBA/J mice; settings: two weeks after further boost of PLA2 and adjuvant; percentage and absolute number
Protocol: Two weeks later spleen cells were isolated, and analysed directly for intracellular IFN-γ by flow cytometry (FIG. 11) or analyzed for IFN-γ, IL-4 and IL-10 secretion by ELISA after four days cultivation with 10 μg/ml PLA2 (FIG. 12). For FIG. 11, intracellular IFN-γ was measured by flow cytometry after four hours stimulation of cells with PdBu and ionomycin (both at 500 ng/ml) in the presence of brefeldin A (10 μg/ml). The cells were then incubated with anti-CD16/CD32 for Fc-recptor blocking and stained on ice and in PBS/FCS 2% with fluorescent-labelled Abs against CD4, CD8 and CD44 (all Abs from BD Biosciences (Franklin Lakes, N.J.). Cells were subsequently fixed with 4% paraformaldehyde and permeabilised with 0.1% Nonidet P-40 before staining with Ab against IFN-γ. Four-color cytometry were performed on a FACSCalibur flow cytometer (BD Biosciences, San Jose, Calif.). Cells were gated on CD4 or CD8 positive lymphocytes and the results expressed as means (±S.D.) for three mice, as percent of T-cell subset (A) or as absolute numbers in the spleen (B). One representative out of two immunization experiments is shown. […] Supernatants were collected after 96 hours incubation and IL-4, IL-10 and IFN-γ concentrations determined by ELISA from R&D Systems (Abingdon, United Kingdom). […]

[3] = system: PLA2-specific IgG2a and IgG1 antibodies; test: anti-PLA2 IgG2a, IgG1 and IgE in sera after intralymphatic PLA2 plus TLR ligand; assay type: in vivo, CBA/J mice; settings: for kinetics of the antibody production (time of maximum titers): i.ln. with 0.1 μg PLA2, sera over 13 weeks; for anti-PLA2 antibody isotypes induced (IgG2a, IgG1): i.ln. with 0.1 μg PLA2, three injections; for sero-conversion: seven weeks after the first and three weeks after last injection, i.ln. with 0.1 μg PLA2
Protocol: The compounds were mixed within an hour before injection into the inguinal lymph node.
The sera were obtained over 13 weeks and analyzed by ELISA for anti-PLA2 IgG2a (FIG. 10A) and IgG1 (FIG. 10B). The ratio of IgG2a to IgG1 titers was calculated as a measure for Th1/Th2 immune response balance (FIG. 10C). […] Pre-immunization levels of anti-PLA2 antibodies were measured on sera from five mice taken the day before first injection.

splenocytes = test: IFN-γ, IL-4 and IL-10 secretion of splenocytes cultured with PLA2 (ELISA); assay type: in vivo, CBA/J mice; settings: for IFN-γ secreted (ELISA): versus LPS or 3M003 P<0.01
Protocol: Two weeks later spleen cells were isolated, and analysed directly for intracellular IFN-γ by flow cytometry (FIG. 11) or analyzed for IFN-γ, IL-4 and IL-10 secretion by ELISA after four days cultivation with 10 μg/ml PLA2 (FIG. 12). For FIG. 11, intracellular IFN-γ was measured by flow cytometry after four hours stimulation of cells with PdBu and ionomycin (both at 500 ng/ml) in the presence of brefeldin A (10 μg/ml). The cells were then incubated with anti-CD16/CD32 for Fc-recptor blocking and stained on ice and in PBS/FCS 2% with fluorescent-labelled Abs against CD4, CD8 and CD44 (all Abs from BD Biosciences (Franklin Lakes, N.J.). Cells were subsequently fixed with 4% paraformaldehyde and permeabilised with 0.1% Nonidet P-40 before staining with Ab against IFN-γ. Four-color cytometry were performed on a FACSCalibur flow cytometer (BD Biosciences, San Jose, Calif.). Cells were gated on CD4 or CD8 positive lymphocytes and the results expressed as means (±S.D.) for three mice, as percent of T-cell subset (A) or as absolute numbers in the spleen (B). One representative out of two immunization experiments is shown. For FIG. 12, after homogenisation of spleens and lysis of red blood cells, 5×10^5 splenocytes were cultured with […] PLA2 protein in 200 μl IMDM (Gibco) supplemented with L-glutamine (4 mM), FCS (10%), mercaptoethanol (75 μM), as well as streptomycin and ampicillin. Supernatants were collected after 96 hours incubation and IL-4, IL-10 and IFN-γ concentrations determined by ELISA from R&D Systems (Abingdon, United Kingdom). Cytokine concentrations in supernatants as determined by ELISA after subtraction of spontaneous cytokine secretion was determined upon in vitro stimulation with an irrelevant antigen (ovalbumin). Statistical differences between the different groups were indicated when significant (P<0.01). One representative out of two immunization experiments is shown.

[4] = of the 17 patients receiving IL-12 in the phase II study; cited from earlier work
CD8+ T cell population = test: tetramer and CD8 double staining after intranodal Melan-A peptide plus BRM; assay type: in vivo; settings: for immune response by tetramer staining: intranodal Melan-A peptide alone, plus 0.1 nmole CpG ODN or plus 25 μg polyI:C, days 0, 3, 14 and 17
Source text: H-2 class I-negative, HLA-A2.1-transgenic (HHD-1) mice (Pascolo, S., et al., J Exp Med. 185:2043-2051, 1997 (which is incorporated herein in its entirety)) were housed under pathogen-free conditions and used for evaluation of the immunogenicity of HLA-A2.1-restricted human tumor-associated cytotoxic T lymphocyte (CTL) epitopes. Female mice 8-12 weeks of age were used for intralymphatic immunization and for isolation of splenocytes for in vivo cytotoxicity studies. […] A total of four rounds of injections were given, on days 0, 3, 14 and 17.
The immune response was measured by tetramer and CD8 double staining of splenocytes from the immunized mice. Mononuclear cells isolated from peripheral blood after density centrifugation (Lympholyte Mammal, Cedarlane Labs) with HLA-A*0201 MART1 (SEQ. ID. No. 3)-PE MHC tetramer (Beckman Coulter) and FITC conjugated rat anti-mouse CD8a (Ly-2) monoclonal antibody (BD Biosciences). Data was collected using a BD FACS Calibur flow cytometer and analysed using Cellquest software by gating on the lymphocyte population and calculating the percent of tetramer^+ cells within the CD8^+ CTL population. The results (see FIG. 5) were expressed as means±SEM of % tetramer stained cells within the CD8+ T cell population (A), and with specific dot plot plots representative for each group (B). Splenocytes from naive transgenic mice were included as controls.

[5] = system: Human melanoma tumor target cells, 624.38 (Melan-A^+, HLA-A2^+); test: in vivo clearance of human melanoma tumor cells from pulmonary tissue; parameters: species or system HHD-1 mice; settings: mice immunized intranodally as in Example 4, challenged i.v. with 624.38 cells
Protocol: The effectiveness of CTL generated as described in Example 4 was assessed as in vivo clearance of tumor cells from pulmonary tissue in mice challenged with Melan-A^+ tumor cells. Human melanoma tumor target cells, 624.38 (Melan-A^+, HLA-A2^+) were cultured in RPMI medium supplemented with 10% fetal bovine serum (Hyclone), 0.1 mM non-essential amino acids, and 0.3 mg/mL L-glutamine in a 5% CO2 incubator at 37° C. The HLA-A2^− subclone, 624.28, was grown under the same conditions and served as a negative control. Specific targets were prepared by incubating 10^8 624.38 cells with 2.5 μM CFSE in PBS for 20 minutes (CFSE^hi) and 10^8 HLA-A2^−, 624.28 target controls were labelled with 0.25 μM CFSE (CFSE^lo). Each immunized HHD-1 mouse was intravenously injected in the tail vein with a mixture of 10^7 CFSE^hi 624.38 and 10^7 CFSE^lo 624.28 cells followed by an identical injection 3 hours later. Un-immunized HHD-1 mice were also injected and served as naïve controls. […] The mononuclear cells were then isolated by density centrifugation and CFSE positive cells were analysed by FACS. The in vivo specific lysis of human melanoma target cells in the lung was calculated by the following formula: [(1−% CFSE^hi/% CFSE^lo)−(1−% CFSE^hiControl/% CFSE^loControl)]

[6] = system: ^51Cr-labeled target cells (T2 cells); test: standard cytotoxic assay after intranodal peptide plus polyI:C; assay type: in vivo, HHD-A2 transgenic mice; settings: 12.5 μg peptide+12.5 μg polyI:C per inguinal lymph node, day 0, 3, 14 and 17; targets pulsed with peptide or tumor cells
Protocol: HHD-A2 transgenic mice (n=4/group) were immunized with various peptides (see Table 1) admixed with polyI:C, by direct inoculation into the inguinal lymph nodes (12.5 μg peptide+12.5 μg of adjuvant, in 25 μl of PBS/each inguinal lymph node at day 0, 3, 14 and 17). One week after the final administration, splenocytes were stimulated ex vivo with 10 μg/ml of peptide in presence of 5 U/ml of rIL-2 and tested in a standard cytotoxic assay, against ^51Cr-labeled target cells (T2 cells) uncoated or coated with cognate peptide, at various Effector:Target ratios. Alternatively, in the case of PSMA 288-297 epitope, cytotoxicity was measured against PSMA expressing human tumor cells (LNCap) cells coated or not with 10 μg/ml of MHC class I blocking antibody (W6/32). Cytotoxicity resulting from immunization with the NY-ESO-1 157-165 epitope was also assessed against 624.28 and 624.38 cells that had been transformed to express a GFP/NY-ESO-1 fusion protein.

CpG ODN 1668pt: CpG ODN 1668pt (SEQ. ID. No. 1), unmethylated CpG oligodeoxynucleotide, TLR9 ligand (DNA TCCATGACGTTCCTGAATAAT; DNA, backbone not given here)
changes of B lymphocytes in spleen (splenocyte): Only moderate changes | relative amounts of CD4 and CD8 T cells as well as NK cells (splenocyte): substantially reduced in a dose-dependent manner | expression of CD80 and CD86 on DCs (DCs; 10 and 1 nmol, regardless of the route, after one day): significantly enhanced expression of CD80 and CD86 | reduction of the dose of CpG necessary for DC maturation (DCs; direct intralymphatic versus subcutaneous administration): 10-50 fold | DC maturation (DCs; low CpG doses of 0.1 and 0.01 nmol, i.ln. versus s.c.): only direct injection into the inguinal lymph node induced significant DC maturation | CTL activity ([1]; subcutaneous vaccination with OVA plus CpG): did not elicit CTL activity | CTL activity ([1]; vaccinated intralymphatically with OVA plus CpG): significant induction of cytotoxic CD8 T cells even at 0.01 nmol CpG | PLA2-specific antibody responses (PLA2-specific IgG; intralymphatic, high CpG dose of 10 nmol): no antibody responses were detectable | PLA2-specific antibody titers (PLA2-specific IgG; intralymphatic, low CpG doses of 0.1 and 0.01 nmol): highest antibody titers | PLA2-specific IgG, adjuvant effect (PLA2-specific IgG; subcutaneously, CpG 0.1 and 0.01 nmol): an adjuvant effect was no longer detectable | PLA2-specific IgG titers (PLA2-specific IgG; subcutaneously, CpG doses of 10 and 1 nmol with 0.1 μg PLA2): highest IgG titers

CpG: phosphorothioate-modified CpG ODN 1826 (SEQ. ID. No. 10), TLR 9 ligand, Examples 8 and 9 (DNA TCCATGACGTTCCCTGACGTT; DNA, all phosphorothioate, methylation of C not given here)
IFN-γ producing CD8-positive and CD4-positive T cells [2]: strongest effect | serum concentration of IgG1 relative to the titers induced by LPS or PolyI:C ([3]; geometrically, 10 and 13 weeks): 30-50% | kinetics of the antibody production (time of maximum titers) [3]: a delay in the IgG1 antibody production | anti-PLA2 antibody isotypes induced (IgG2a, IgG1) [3]: induced IgG2a | IgG1 in seven-week sera ([3]; seven weeks after initiating immunization): hardly detectable | sero-conversion [3]: notable sero-conversion | IL-4 secretion (splenocytes; compared with 3M003 and PolyI:C (P<0.01) or LPS (P<0.05)): significantly reduced IL-4 secretion | IL-10 production (splenocytes; splenocytes cultured with PLA2): the strongest IL-10 production | IFN-γ secreted (ELISA) (splenocytes; splenocytes cultured with PLA2): highest amounts of IFN-γ

IL-12: co-stimulatory cytokine
patients died [4]: 2 patients | patients hospitalized [4]: 12 patients

Melan-A peptide: Melan-A peptide (SEQ. ID. No. 3), A27L analogue of the A2-restricted Melan-A 26-35 epitope
immune response by tetramer staining (CD8+ T cell population): readily detectable response by tetramer staining; also recorded: not very effective in inducing a robust T cell population expansion

peptidoglycan
kinetics of the antibody production (time of maximum titers) [3]: peak titers were delayed | anti-PLA2 antibody isotypes induced (IgG2a, IgG1) [3]: induced predominantly IgG2a

polyriboinosinic polyribocytidylic acid [polyI:C]
kinetics of the antibody production (time of maximum titers) [3]: maximum levels of antibodies within three weeks of the final boost injection | anti-PLA2 antibody isotypes induced (IgG2a, IgG1) [3]: high antibodies titers of both IgG1 and IgG2a isotypes | sero-conversion [3]: notable sero-conversion | in vivo lysis of human melanoma target cells in the lung [5]: substantial lytic activity | IFN-γ secreted (ELISA) (splenocytes; splenocytes cultured with PLA2): highest amounts of IFN-γ | cytotoxic response [6]: triggered a specific cytotoxic response | immune response by tetramer staining (CD8+ T cell population): robust antigen specific response | systemic acute phase reaction, mortality or morbidity at the dose used (CD8+ T cell population; intranodal, 0.1 nmole CpG ODN or 25 μg polyI:C): not associated with observed mortality or morbidity
